Laboratory results from article PMC10952582, “Pregnenolone sulfate analogues differentially modulate GABAA receptor closed/desensitised states” (British Journal of Pharmacology, 2023).

Experiments:
Assay type in all cases: cell-based, murine
α1β3γ2L GABAAR [1] = target: T1, α1β3γ2L GABAAR (Mus musculus, UniProt P62812); assay: Whole-cell voltage-clamp electrophysiology, wild-type α1β3γ2L GABAARs expressed in HEK cells; settings: for mean (weighted) decay time (τw) of GABA current: 1 nM PS analogue, 30 μM GABA
T1 construct: expressed in transfected cells; host or cells: HEK 293 cells (ATCC CRL-1573)
T1 sequence (P62812 28-455): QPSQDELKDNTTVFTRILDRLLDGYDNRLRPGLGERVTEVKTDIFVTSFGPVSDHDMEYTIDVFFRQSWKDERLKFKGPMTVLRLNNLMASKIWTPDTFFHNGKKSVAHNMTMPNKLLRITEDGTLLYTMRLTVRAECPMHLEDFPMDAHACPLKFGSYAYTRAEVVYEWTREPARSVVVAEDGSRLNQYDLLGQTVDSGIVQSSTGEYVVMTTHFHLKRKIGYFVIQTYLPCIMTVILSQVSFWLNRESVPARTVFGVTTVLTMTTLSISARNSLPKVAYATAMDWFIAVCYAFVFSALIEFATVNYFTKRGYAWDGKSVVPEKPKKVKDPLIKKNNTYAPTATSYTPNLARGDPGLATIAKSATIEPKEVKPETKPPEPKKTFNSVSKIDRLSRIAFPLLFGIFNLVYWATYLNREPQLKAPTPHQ
T1 sequence (P63080 26-473 partner): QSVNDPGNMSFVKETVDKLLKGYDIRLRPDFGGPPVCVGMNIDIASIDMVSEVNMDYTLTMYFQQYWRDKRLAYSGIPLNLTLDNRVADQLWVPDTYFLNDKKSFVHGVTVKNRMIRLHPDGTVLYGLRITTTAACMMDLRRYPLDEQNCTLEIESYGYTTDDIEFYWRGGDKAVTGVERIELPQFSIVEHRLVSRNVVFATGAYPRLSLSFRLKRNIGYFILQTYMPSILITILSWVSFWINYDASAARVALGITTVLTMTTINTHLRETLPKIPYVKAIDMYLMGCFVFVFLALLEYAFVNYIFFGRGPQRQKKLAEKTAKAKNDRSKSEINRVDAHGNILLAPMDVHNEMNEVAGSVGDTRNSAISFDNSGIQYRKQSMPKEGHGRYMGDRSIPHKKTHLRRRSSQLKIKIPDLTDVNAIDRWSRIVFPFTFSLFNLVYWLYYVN
T1 sequence (P22723 39-474 partner): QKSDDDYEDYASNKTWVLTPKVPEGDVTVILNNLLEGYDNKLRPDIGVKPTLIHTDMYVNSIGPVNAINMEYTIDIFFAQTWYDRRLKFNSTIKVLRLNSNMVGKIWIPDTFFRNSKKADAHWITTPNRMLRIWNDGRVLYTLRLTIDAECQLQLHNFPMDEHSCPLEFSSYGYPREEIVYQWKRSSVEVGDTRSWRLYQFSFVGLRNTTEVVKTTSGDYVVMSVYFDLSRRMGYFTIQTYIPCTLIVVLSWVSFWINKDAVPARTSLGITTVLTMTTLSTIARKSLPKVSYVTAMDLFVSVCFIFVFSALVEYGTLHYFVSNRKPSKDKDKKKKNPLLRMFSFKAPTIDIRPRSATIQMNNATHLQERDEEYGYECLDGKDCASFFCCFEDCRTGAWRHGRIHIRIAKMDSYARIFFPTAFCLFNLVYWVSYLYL
Method: (§1) HEK 293 cells (ATCC Cat# CRL‐1573, RRID:CVCL_0045) were maintained and transfected under standard conditions. In brief, cells were grown in monolayers in Dulbecco's modified Eagle's medium supplemented with 10% v/v fetal calf serum, 100 U·ml^−1 of penicillin‐G and 100 μg·ml^−1 of streptomycin and incubated at 37°C in humidified 95% air/5% CO2.
(§2) Before transfection, HEK cells were plated onto 22 mm of glass coverslips (VWR) coated in poly‐L‐lysine (Sigma). Cells were transfected with α1 (wild‐type [wt] or mutant [mut]), β3 (wt), γ2L (wt or mut) and enhanced green fluorescent protein (eGFP) in an equimolar ratio (1:1:1:1), using a calcium‐phosphate precipitation protocol. The transfection solution was prepared from 4 μg of cDNA per coverslip, 20 μl of 340 mM of CaCl2 and 24 μl of 2× HEPES‐buffered saline (HBS) (50 mM of HEPES, 280 mM of NaCl and 2.8 mM of Na2HPO4). Cells were selected for electrophysiology after 16–30 h based on their morphology and moderate GFP fluorescence.
(§3) Coverslips with transfected HEK cells were transferred into a recording chamber on a Nikon Eclipse FN1 microscope with a 470‐nm LED for GFP fluorescence. Cells were continuously perfused with Krebs solution containing (mM) 140 NaCl, 4.7 KCl, 1.2 MgCl2, 2.52 CaCl2, 11 glucose and 5 HEPES (pH 7.4). Patch pipettes (thin‐walled filamented borosilicate glass capillaries; TW150F‐4; WPI, USA; 3–4 MΩ) were filled with an intracellular solution containing (mM) 140 CsCl, 2 NaCl, 2 MgCl2, 5 EGTA, 10 HEPES, 0.5 CaCl2, 2 Na‐ATP and 0.5 Na‐GTP (pH 7.2). Drugs were applied to cells using a Y‐tube delivery system (Mortensen & Smart, [2007]), with the PS analogues pre‐applied 10–12 s before co‐application with GABA.
(§4) HEK cells were voltage clamped at −30 mV using an Axopatch 200B amplifier (Molecular Devices, USA), and whole‐cell currents were filtered at 5 kHz (−36 dB), digitised at 50 kHz via a Digidata 1322A (Molecular Devices) and recorded to a Dell Optiplex 990 using Clampex 10.2 (Molecular Devices). Series resistance was compensated at 60%–70%, and only data with <20% deviation in series resistance would be included in subsequent analyses.
(§5) Weighted time constants for the decay phase (τw) were calculated by fitting a biexponential curve to the current decay waveform and applying the following equation: τw=A1.τ1+A2.τ2/A1+A2, where τ1 and τ2 represent time constants for the two exponential components of the decay phase and A1 and A2 are their relative area contributions.
(§6) Current responses from voltage‐clamp experiments were measured, and decays fitted using ClampFit 10.2 (Molecular Devices) to determine the respective time constants. In Origin, data were plotted as concentration–response curves, and curves fitted using the following inhibition equation: I/Imax=1−B^n/IC50^n+B^n, where I is the current response, B is the concentration of the PS analogue, n is the slope coefficient and IC50 is the analogue concentration producing 50% inhibition of GABA current (inhibitory potency). Potency values are presented as pIC50 with SEM values. The mean was transformed into a molar concentration by pIC50 = −log IC50. Other data are represented as the mean ± SEM.

α1V296Lβ3γ2L GABAAR = target: T2, α1V296Lβ3γ2L GABAAR (Mus musculus, UniProt P62812, V323L); assay: Whole-cell voltage-clamp electrophysiology, minimally desensitising mutant α1V296Lβ3γ2L in HEK cells
T2 construct: expressed in transfected cells; host or cells: HEK 293 cells (ATCC CRL-1573)
T2 sequence (P62812 28-455 V323L): as the sequence (P62812 28-455) above, with V296L counted along it
T2 sequence (P63080 26-473 partner): as the sequence (P63080 26-473 partner) above
T2 sequence (P22723 39-474 partner): as the sequence (P22723 39-474 partner) above
Method: as §1, §2, §3, §4, §5, §6

α1β3γ2LV262F GABAAR = target: T3, α1β3γ2LV262F GABAAR (Mus musculus, UniProt P62812); assay: Whole-cell voltage-clamp electrophysiology, highly desensitising mutant α1β3γ2LV262F in HEK cells
T3 construct: expressed in transfected cells; host or cells: HEK 293 cells (ATCC CRL-1573)
T3 sequence (P62812 28-455): as the sequence (P62812 28-455) above
T3 sequence (P63080 26-473 partner): as the sequence (P63080 26-473 partner) above
T3 sequence (P22723 39-474 V300F partner): as the sequence (P22723 39-474 partner) above, with V262F counted along it
Method: as §1, §2, §3, §4, §5, §6

α1β3γ2L GABAAR [2] = target: T4, α1β3γ2L GABAAR (Mus musculus, UniProt P22723+P62812+P63080); assay: Whole-cell voltage-clamp electrophysiology, wild-type α1β3γ2L GABAARs expressed in HEK cells
T4 construct: expressed in transfected cells; host or cells: HEK 293 cells (ATCC CRL-1573)
T4 sequence (P62812 28-455): as the sequence (P62812 28-455) above
T4 sequence (P63080 26-473 partner): as the sequence (P63080 26-473 partner) above
T4 sequence (P22723 39-474 partner): as the sequence (P22723 39-474 partner) above
Method: as §1, §2, §3, §4, §5, §6

[3] = steady-state current after 20 s of 1 mM GABA
[4] = Decay inhibition (pIC50), potency for reducing GABA current weighted decay time constant, 30 μM GABA
[5] = Peak inhibition (IC50), peak current evoked by 30 μM GABA, analogue pre-applied 10–12 s and co-applied
[6] = Steady-state inhibition (pIC50), GABA current after 20 s of 30 μM GABA (near steady state)

Row | mean weighted decay time constant (τw) of GABA current (α1β3γ2L GABAAR [1]; wild-type α1β3γ2L, 1 mM GABA, 20 s) [s] | Structure (SMILES) | extent of macroscopic desensitisation (α1β3γ2L GABAAR [1]; wild-type α1β3γ2L, steady-state current after 20 s of 1 mM GABA) [%] | mean weighted decay time constant (τw) of GABA current (α1V296Lβ3γ2L GABAAR; 1 mM GABA, 20 s) [s] | extent of macroscopic desensitisation (α1V296Lβ3γ2L GABAAR; [3]) [%] | mean weighted decay time constant (τw) of GABA current (α1β3γ2LV262F GABAAR; 1 mM GABA, 20 s) [s] | extent of macroscopic desensitisation (α1β3γ2LV262F GABAAR; [3]) [%] | IC50 (α1β3γ2L GABAAR [2]; Decay inhibition (IC50), potency for reducing GABA current weighted decay time constant, 30 μM GABA) [nM] | IC50 (α1β3γ2L GABAAR [2]; [4]) [nM] | IC50 (α1β3γ2L GABAAR [2]; [5]) [nM] | IC50 (α1β3γ2L GABAAR [2]; Peak inhibition (pIC50), peak current evoked by 30 μM GABA, analogue pre-applied 10–12 s and co-applied) [nM] | IC50 (α1β3γ2L GABAAR [2]; [6]) [nM] | mean (weighted) decay time (τw) of GABA current (α1β3γ2L GABAAR [1]) [s] | IC50 (α1β3γ2L GABAAR [2]; Steady-state inhibition (IC50), GABA current after 20 s of 30 μM GABA (near steady state)) [nM]
1 | 3.7 ± 0.17 | NCCCC(=O)O [GABA, γ‐Aminobutyric acid] | 68 ± 1.6 | 7.4 ± 1.3 | 39 ± 6.0 | 2.3 ± 0.28 | 89 ± 1.3 | – | – | – | – | – | – | –
2 | – | CC12CCC(OS(=O)(=O)O)CC1=CCC1C2CCC2(C)C(C(=O)CBr)CCC12 (centres unmarked) [compound 2] | – | – | – | – | – | 880 | 875 | 2700 | 2650 | 279 | 3.8 ± 0.2 | –
3 | – | C[C@]12CC[C@H](OS(=O)(=O)O)CC1=CCC1C2CC[C@@]2(C)C1CC[C@@H]2C(=O)Cn1ccnc1 (some centres unmarked) [compound 3] | – | – | – | – | – | – | 8510 | 743000 | – | 891 | 3.8 ± 0.8 | ~1000
